Results taken from US20060281807A1, “Quassinoid compositions for the treatment of cancer and other proliferative diseases” (Tapestry Pharmaceuticals, Inc., priority 2005, published 2006).

Columns and labels:
[1] = test system: SK-N-AS; experiment: MTT cytotoxicity assay (% kill), SK-N-AS; format: cell-based, human; details: 1.0 μg/mL, MTT after five days
Description: (§1) The following human tumor cell lines were obtained and cultured in sextuplicate microwells at 37° C. and 5% CO2 in humidified air and in 10% FBS in Eagles MEM: SK—N—FI, SK—N-AS, LS-174T, WiDr, HuTu-80, MCF7, NCI-AR, MES-Sar, and PL-45. Cells from each cell line were separately treated with an amount of one of the compounds of Formula I, II, or III (see Table 1). Cells were exposed to each compound (0.1 μg/mL or 1.0 μg/mL) for one hour or 24 hours, rinsed with drug-free media, and incubated for an additional five days. The number of viable cells after five days was measured using an MTT (3-(4,5-dimethylthiazol-2-yl)-2,5-diphenyltetrazolium bromide) assay (see, e.g., Mosmann, J. Immunol. Methods, 65(1-2), 55-63 (1983)).
(§2) The cytotoxicity of each drug was determined and expressed as the percent of cells killed (“% kill”).

[2] = test system: Colon 38 (murine colon adenocarcinoma); experiment: Disk diffusion assay, zone of inhibition, Colon 38; zone differentials, potency and product; format: cell-based; design: key to C38ΔL1210 / C38ΔCFU: difference of zone of inhibition values, in zone units; details: for Sum: C38ΔL1210 plus C38ΔCFU; for C38ΔL1210 / C38ΔCFU: difference between zone of inhibition values; for C38ΔL1210: Colon38 vs L1210 leukemia; for C38ΔCFU: Colon38 vs normal cell CFU-GM; for Product: potency multiplied by zone differentials
Description: A disk diffusion assay was performed to define the differential cell killing ability of 15-O-(3′-hydroxy-3′-isopropyl-4′-methylpentanoyl)bruceolide. Seven cell types were assayed: L1210 (ATCC CCL-219) (murine leukemia), CCRF-CEM (ATCC CCL-119) (human leukemia), Colon 38 (murine colon adenocarcinoma), HCT116 (ATCC CCL-247) (human colorectal carcinoma), H125 (human lung carcinoma). The murine and human granulocyte/macrophage progenitor cell line (CFU-GM), served as controls.
Colon 38 cells (about 1 gram) were cut into small fragments in 15 mL of Hank's Balanced Salt Solution (HBSS) over a 100-mesh sieve and gently forced through by the scissors with HBSS constantly perfusing the sieve. The resulting material was then drawn into and out of a 5 mL syringe without a needle to further disperse the cell clumps. The cell solution was diluted and plated in 0.3% agarose in DMEM plus 10% heat-inactivated Bovine Calf Serum (BCS). For plating of all of the cell types (except controls), the 60 mm plates were first prepared with a hard agar bottom layer (0.6% agar in RPMI-1640 plus 15% BCS).
A 15 μl sample of each compound was dropped onto a 6.5 mm disk (Baxter filter disks). The disks were allowed to dry overnight and then placed close to the edge of a petri dish. Depending upon the cell type, the dishes were incubated for 7 to 10 days, and examined by an inverted stereo-microscope (10×) for measurement of the zone of inhibition. The zone of inhibition was measured from the edge of the filter disk to the beginning of normal-sized colony formation. The diameter of the filter disk, 6.5 mm, was arbitrarily taken as a zone of 200 units. Compounds that were selective for killing solid tumors, as compared to leukemia or normal cells (“solid tumor selective”) were defined as those compounds which produced a difference in zones between solid tumor cells and either normal or leukemia cells of at least 250 units. The results of this analysis are set forth in Table 4, which illustrates the relative diameters of the zones of inhibition by various drugs on the growth of the respective cell types at various drug dilutions.
The degree of differential sensitivity of several inventive compounds was compared with respect to the Colon38 cell line, the L1210 cell line, and the control CFU-GM cell lines. The degree of differential sensitivity was estimated by calculating the difference between the zone of inhibition values, as determined in Example 6, for the solid tumor compared to either the leukemia (C38ΔL1210) or normal cell (C38ΔCFU).
The potency of each of several inventive compounds was determined by identifying the dilution required to yield an average zone of inhibition of 500 units for the Colon38 cell type. Then the potency and the zone differentials were multiplied to define a “product” (see Table 5), which can be used to rank the compounds tested for their potential for further development; the greater the product value the greater the probability of useful chemotherapeutic utility.

[3] = test system: LS-174T; experiment: MTT cytotoxicity assay (% kill), LS-174T; format: cell-based, human; details: 1.0 μg/mL, MTT after five days
Description: as §1, §2

[4] = listed as 15-O-(allyloxycarbonyl) bruceolide

## COC(=O)C12OCC34C(CC5C(C)=C(O)C(=O)CC5(C)C3C(O)C1OC(=O)OCC1COC(C)(C)O1)OC(=O)C(OC(=O)OCC1COC(C)(C)O1)C24 (centres unmarked) [12,15-O,O-bis(Solketyloxycarbonyl)-bruceolide]
[1]; 1 h exposure
  % Kill, SK-N-AS: 3%
[1]; 24 h exposure
  % Kill, SK-N-AS: 5%
[2]
  Sum: 1000
  C38ΔL1210: 400
  C38ΔCFU: 600
  Product: 2000

## C=CCOC(=O)OC1C(=O)OC2CC3C(C)=C(O)C(=O)CC3(C)C3C(O)C(OC(=O)OCC=C)C4(C(=O)OC)OCC23C14 (centres unmarked) [12,15-O,O-bis-(allyloxycarbonyl)-bruceolide]
[1]; 1 h exposure
  % Kill, SK-N-AS: 0%
[1]; 24 h exposure
  % Kill, SK-N-AS: 2%
[2]
  Sum: 650
  C38ΔL1210: 300
  C38ΔCFU: 350
  Product: 650

## COC(=O)C12OCC34C(CC5C(C)=C(O)C(=O)CC5(C)C3C(O)C1OC(=O)C=C(C)C(C)C)OC(=O)C(OC(=O)C=C(C)C(C)C)C24 (centres unmarked) [12-O-(3,4-dimethyl-2-pentenoyl)-bruceantin]
[1]; 1 h exposure
  % Kill, SK-N-AS: 0%
[1]; 24 h exposure
  % Kill, SK-N-AS: 0%

## COC(=O)[C@@]12OC[C@]34[C@H]([C@@H](O)[C@@H]1O)[C@@]1(C)CC(=O)C(O)=C(C)[C@@H]1C[C@H]3OC(=O)[C@H](OC(=O)C1=CCCCC1)[C@@H]24 [15-O-(1′-cyclohexenoyl)-bruceolide]
[3]; 1 h exposure
  % Kill, LS-174T: 12%
[3]; 24 h exposure
  % Kill, LS-174T: 35%
[1]; 1 h exposure
  % Kill, SK-N-AS: 0%
[1]; 24 h exposure
  % Kill, SK-N-AS: 5%
[2]
  Sum: 550
  C38ΔL1210: 200
  C38ΔCFU: 350
  Product: 550

## COC(=O)C12OCC34C(CC5C(C)=C(O)C(=O)CC5(C)C3C(O)C1O)OC(=O)C(OC(=O)C1=CCCC1)C24 (centres unmarked) [15-O-(1′-cyclopentenoyl)-bruceolide]
[3]; 1 h exposure
  % Kill, LS-174T: 0%
[3]; 24 h exposure
  % Kill, LS-174T: 8%
[1]; 1 h exposure
  % Kill, SK-N-AS: 0%
[1]; 24 h exposure
  % Kill, SK-N-AS: 0%
[2]
  Sum: 750
  C38ΔL1210: 350
  C38ΔCFU: 400
  Product: 750

## COC(=O)C12OCC34C(CC5C(C)=C(O)C(=O)CC5(C)C3C(O)C1O)OC(=O)C(OC(=O)c1cc(C)oc1C)C24 (centres unmarked) [15-O-(2′,5′-dimethyl-3′-furoyl)-bruceolide]
[3]; 1 h exposure
  % Kill, LS-174T: 12%
[3]; 24 h exposure
  % Kill, LS-174T: 53%
[1]; 1 h exposure
  % Kill, SK-N-AS: 0%
[1]; 24 h exposure
  % Kill, SK-N-AS: 34%
[2]
  Sum: 1050
  C38ΔL1210: 500
  C38ΔCFU: 550
  Product: 4200

## COC(=O)[C@@]12OC[C@]34[C@H]([C@@H](O)[C@@H]1O)[C@@]1(C)CC(=O)C(O)=C(C)[C@@H]1C[C@H]3OC(=O)[C@H](OC(=O)CC(C)(C)C)[C@@H]24 [15-O-(3′,3′-dimethylbutanoyl)-bruceolide]
[3]; 1 h exposure
  % Kill, LS-174T: 7%
[3]; 24 h exposure
  % Kill, LS-174T: 60%
[1]; 1 h exposure
  % Kill, SK-N-AS: 0%
[1]; 24 h exposure
  % Kill, SK-N-AS: 62%
[2]
  Sum: 800
  C38ΔL1210: 450
  C38ΔCFU: 350
  Product: 3200

## CCC(=CC(=O)O[C@H]1C(=O)O[C@@H]2C[C@H]3C(C)=C(O)C(=O)C[C@]3(C)[C@H]3[C@@H](O)[C@H](O)[C@@]4(C(=O)OC)OC[C@]32[C@@H]14)CC [15-O-(3′-ethyl-2′-pentene-oyl)-brucelide]
[3]; 1 h exposure
  % Kill, LS-174T: 24%
[3]; 24 h exposure
  % Kill, LS-174T: 64%
[1]; 1 h exposure
  % Kill, SK-N-AS: 0%
[1]; 24 h exposure
  % Kill, SK-N-AS: 66%

## CCC(O)(CC)CC(=O)OC1C(=O)OC2CC3C(C)=C(O)C(=O)CC3(C)C3C(O)C(O)C4(C(=O)OC)OCC23C14 (centres unmarked) [15-O-(3′-ethyl-3′-hydroxypentanoyl)-bruceolide]
[3]; 1 h exposure
  % Kill, LS-174T: 10%
[3]; 24 h exposure
  % Kill, LS-174T: 50%
[1]; 1 h exposure
  % Kill, SK-N-AS: 6%
[1]; 24 h exposure
  % Kill, SK-N-AS: 71%
[2]
  Sum: 850
  C38ΔL1210: 350
  C38ΔCFU: 500
  Product: 3400

## COC(=O)C12OCC34C(CC5C(C)=C(O)C(=O)CC5(C)C3C(O)C1O)OC(=O)C(OC(=O)CC(C)(C)O)C24 (centres unmarked) [15-O-(3′-hydroxy-3′-methylbutanoyl)-bruceolide]
[3]; 1 h exposure
  % Kill, LS-174T: 29%
[3]; 24 h exposure
  % Kill, LS-174T: 64%
[2]
  Sum: 950
  C38ΔL1210: 400
  C38ΔCFU: 550
  Product: 2850

## C=CCOC(=O)O[C@H]1C(=O)O[C@@H]2C[C@H]3C(C)=C(O)C(=O)C[C@]3(C)[C@H]3[C@@H](O)[C@H](O)[C@@]4(C(=O)OC)OC[C@]32[C@@H]14 [15-O-(allyloxycarbonyl)-bruceolide]
[3]; 1 h exposure
  % Kill, LS-174T: 1%
[3]; 24 h exposure
  % Kill, LS-174T: 43%
[1]; 1 h exposure
  % Kill, SK-N-AS: 1%
[1]; 24 h exposure
  % Kill, SK-N-AS: 43%
[2]
  Sum: 1050
  C38ΔL1210: 500
  C38ΔCFU: 550
  Product: 4100
[2]; [4]
  Sum: 600
  C38ΔL1210: 350
  C38ΔCFU: 250
  Product: 3600

## CCCCCCCCC=CCCCCCCCC(=O)OC1C(=O)OC2CC3C(C)=C(O)C(=O)CC3(C)C3C(O)C(O)C4(C(=O)OC)OCC23C14 (stereo not drawn) [15-O-(cis-9′-octadecenoyl)-bruceolide]
[3]; 1 h exposure
  % Kill, LS-174T: 4%
[3]; 24 h exposure
  % Kill, LS-174T: 13%
[1]; 1 h exposure
  % Kill, SK-N-AS: 0%
[1]; 24 h exposure
  % Kill, SK-N-AS: 0%

## COC(=O)[C@@]12OC[C@]34[C@H]([C@@H](O)[C@@H]1O)[C@@]1(C)CC(=O)C(O)=C(C)[C@@H]1C[C@H]3OC(=O)[C@H](OC(=O)C=C1CCCCC1)[C@@H]24 [15-O-(cyclohexylideneacetyl)-bruceolide]
[3]; 1 h exposure
  % Kill, LS-174T: 13%
[3]; 24 h exposure
  % Kill, LS-174T: 63%
[2]
  Sum: 700
  C38ΔL1210: 350
  C38ΔCFU: 350
  Product: 2800

## COC(=O)C12OCC34C(CC5C(C)=C(O)C(=O)CC5(C)C3C(O)C1O)OC(=O)C(OC(=O)C=C1CCCC1)C24 (centres unmarked) [15-O-(cyclopentylideneacetyl)-bruceolide]
[3]; 1 h exposure
  % Kill, LS-174T: 0%
[3]; 24 h exposure
  % Kill, LS-174T: 50%
[1]; 1 h exposure
  % Kill, SK-N-AS: 0%
[1]; 24 h exposure
  % Kill, SK-N-AS: 50%
[2]
  Sum: 800
  C38ΔL1210: 350
  C38ΔCFU: 450
  Product: 4000

## COC(=O)C12OCC34C(CC5C(C)=C(O)C(=O)CC5(C)C3C(O)C1O)OC(=O)C(OC(=O)OCC1COC(C)(C)O1)C24 (centres unmarked) [15-O-(solketyloxycarbonyl)-bruceolide]
[1]; 1 h exposure
  % Kill, SK-N-AS: 0%
[1]; 24 h exposure
  % Kill, SK-N-AS: 28%
[2]
  Sum: 950
  C38ΔL1210: 400
  C38ΔCFU: 550
  Product: 1900

## COC(=O)[C@@]12OC[C@]34[C@H]([C@@H](O)[C@@H]1O)[C@@]1(C)CC(=O)C(O)=C(C)[C@@H]1C[C@H]3OC(=O)[C@H](OC(=O)CC1(O)CCCC1)[C@@H]24 [15-O-[(1′-hydroxycyclopentyl)-acetyl]-bruceolide]
[3]; 1 h exposure
  % Kill, LS-174T: 36%
[3]; 24 h exposure
  % Kill, LS-174T: 65%
[2]
  Sum: 1300
  C38ΔL1210: 600
  C38ΔCFU: 700
  Product: 5200

## COC(=O)C12OCC34C(CC5C(C)=C(O)C(=O)CC5(C)C3C(O)C1O)OC(=O)C(OC(=O)C=Cc1ccccc1)C24 (centres unmarked) [15-O-cinnamyl-bruceolide]
[3]; 1 h exposure
  % Kill, LS-174T: 16%
[3]; 24 h exposure
  % Kill, LS-174T: 64%
[1]; 1 h exposure
  % Kill, SK-N-AS: 0%
[1]; 24 h exposure
  % Kill, SK-N-AS: 61%
